Experimental data: article PMC5350573 (Redox Biology, 2017)

Tests used:
Assay type in all cases: biochemical
catalase [1] = target: T1, catalase (Bos taurus, UniProt P00432); assay: amperometric H2S release from DTT by isolated catalase
T1 sequence (P00432 2-527): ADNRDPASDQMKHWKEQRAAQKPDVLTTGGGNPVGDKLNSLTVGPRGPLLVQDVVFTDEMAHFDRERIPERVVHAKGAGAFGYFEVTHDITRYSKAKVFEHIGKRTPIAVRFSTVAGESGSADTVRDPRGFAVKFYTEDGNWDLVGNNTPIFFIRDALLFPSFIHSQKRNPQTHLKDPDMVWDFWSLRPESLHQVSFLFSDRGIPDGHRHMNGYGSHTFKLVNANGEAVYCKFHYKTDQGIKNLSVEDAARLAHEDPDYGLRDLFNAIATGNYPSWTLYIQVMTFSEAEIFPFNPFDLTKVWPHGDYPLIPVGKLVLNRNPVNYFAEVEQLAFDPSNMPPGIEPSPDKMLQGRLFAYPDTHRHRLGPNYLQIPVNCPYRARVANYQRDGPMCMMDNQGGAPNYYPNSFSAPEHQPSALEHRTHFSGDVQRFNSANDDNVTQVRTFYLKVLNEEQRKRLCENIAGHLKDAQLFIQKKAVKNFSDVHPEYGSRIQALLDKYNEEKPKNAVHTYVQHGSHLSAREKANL

catalase [2] = target: T1, catalase; assay: amperometric; settings: read-out: % increase at 400 μM
catalase [3] = target: T1, catalase; assay: amperometric H2S release from SO2

**Q.** For `O[C@H](CS)[C@H](O)CS` (racemic) [DTT, dithiothreitol], which “amperometric H2S release from DTT by isolated catalase” value (catalase [1]) is on record?
**A.** The value was “catalase concentration-dependent increase in H2S release (Fig. 7B) confirming that catalase reacts directly with DTT to generate H2S”.

**Q.** Which activation at 400 µM (catalase [2]) does the source give for `NC(=O)C1=CN([C@@H]2O[C@H](COP(=O)(O)OP(=O)(O)OC[C@H]3O[C@@H](n4cnc5c(N)ncnc54)[C@H](OP(=O)(O)O)[C@@H]3O)[C@@H](O)[C@H]2O)C=CC1` [NADPH] here?
**A.** The activation at 400 µM was about 50%.

**Q.** For `O=S=O` [SO2, sulfur dioxide], which EC50 (catalase [3]) is on record?
**A.** The EC50 was “~ between 300 μM and 1 mM”.
